Reference: PubChem BioAssay AID1963842 (Molecular Pharmacology Branch, DTP, NCI, 2024)

System: 677734-321-R-J1-PDC complex spheroid viability
Assay: Anticancer human tumor 677734-321-R-J1-PDC patient-derived soft tissue sarcoma cell line growth inhibition [POLQ]
Settings: for IC50: curve of first compound; for viability, T/C: stronger effect = lower value
Method in brief: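 Three-cell-type spheroids modelling solid tumor plus stroma served as the readout system; POL inhibitors were tested individually and in combination, concentration ranges set by clinical Cmax where known.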

[1] = second compound 0.0316 µM, first compound 0.0316 µM
[2] = second compound 0.0316 µM, first compound 0.1 µM
[3] = second compound 0.0316 µM, first compound 0.316 µM
[4] = second compound 0.0316 µM, first compound 1 µM
[5] = second compound 0.0316 µM, first compound 3.16 µM
[6] = second compound 0.0316 µM, first compound 10 µM
[7] = second compound 0.1 µM, first compound 0.0316 µM
[8] = second compound 0.1 µM, first compound 0.1 µM
[9] = second compound 0.1 µM, first compound 0.316 µM
[10] = second compound 0.1 µM, first compound 1 µM
[11] = second compound 0.1 µM, first compound 3.16 µM
[12] = second compound 0.1 µM, first compound 10 µM
[13] = second compound 0.316 µM, first compound 0.0316 µM
[14] = second compound 0.316 µM, first compound 0.1 µM
[15] = second compound 0.316 µM, first compound 0.316 µM
[16] = second compound 0.316 µM, first compound 1 µM
[17] = second compound 0.316 µM, first compound 3.16 µM
[18] = second compound 0.316 µM, first compound 10 µM
[19] = second compound 1 µM, first compound 0.0316 µM
[20] = second compound 1 µM, first compound 0.1 µM
[21] = second compound 1 µM, first compound 0.316 µM
[22] = second compound 1 µM, first compound 1 µM
[23] = second compound 1 µM, first compound 3.16 µM
[24] = second compound 1 µM, first compound 10 µM
[25] = second compound 3.16 µM, first compound 0.0316 µM
[26] = second compound 3.16 µM, first compound 0.1 µM
[27] = second compound 3.16 µM, first compound 0.316 µM
[28] = second compound 3.16 µM, first compound 1 µM
[29] = second compound 3.16 µM, first compound 3.16 µM
[30] = second compound 3.16 µM, first compound 10 µM
[31] = second compound 10 µM, first compound 0.0316 µM
[32] = second compound 10 µM, first compound 0.1 µM
[33] = second compound 10 µM, first compound 0.316 µM
[34] = second compound 10 µM, first compound 1 µM
[35] = second compound 10 µM, first compound 3.16 µM
[36] = second compound 10 µM, first compound 10 µM
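Note: spheroids exposed to compounds for one week.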
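Throughout, for viability, T/C: 100% = vehicle DMSO treated spheroids.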

C#Cc1c(F)ccc2cc(O)cc(-c3ncc4c(N5CC6CCC(C5)N6)nc(OCC56CCCN5CC(F)C6)nc4c3F)c12 (stereo unspecified) + Cc1cccc(N(C)C(=O)C2C(O)CCN2c2nc(C)cc(C(F)(F)F)c2C#N)c1 was tested, and the IC50 (second compound 0.0316 µM) was > 10 µM, the IC50 (second compound 0.1 µM) was > 10 µM and the IC50 (second compound 0.316 µM) was > 10 µM. For the same molecule, the IC50 (second compound 1 µM) was > 10 µM, the IC50 (second compound 3.16 µM) was > 10 µM and the IC50 (second compound 10 µM) was > 10 µM. It also gave a viability, T/C [1] of 110%, a viability, T/C [2] of 101% and a viability, T/C [3] of 108%. For the same molecule, the viability, T/C [4] was 103%, the viability, T/C [5] was 101% and the viability, T/C [6] was 102%. For the same molecule, the viability, T/C [7] was 111%, the viability, T/C [8] was 106% and the viability, T/C [9] was 105%. It also gave a viability, T/C [10] of 100%, a viability, T/C [11] of 106% and a viability, T/C [12] of 107%. For the same molecule, the viability, T/C [13] was 118%, the viability, T/C [14] was 97.5% and the viability, T/C [15] was 100%. For the same molecule, the viability, T/C [16] was 100%, the viability, T/C [17] was 110% and the viability, T/C [18] was 104%. The viability, T/C [19] was 105%, the viability, T/C [20] was 97% and the viability, T/C [21] was 109%. For the same molecule, the viability, T/C [22] was 100%, the viability, T/C [23] was 107% and the viability, T/C [24] was 102%. It also gave a viability, T/C [25] of 98.1%, a viability, T/C [26] of 102% and a viability, T/C [27] of 103%. It also gave a viability, T/C [28] of 109%, a viability, T/C [29] of 101% and a viability, T/C [30] of 107%. For the same molecule, the viability, T/C [31] was 99.9%, the viability, T/C [32] was 104% and the viability, T/C [33] was 107%. It also gave a viability, T/C [34] of 99.2%, a viability, T/C [35] of 103% and a viability, T/C [36] of 98.8%.
For C=CC(=O)N1CCN(c2nc(=O)n(-c3c(C)ccnc3C(C)C)c3nc(-c4c(O)cccc4F)c(F)cc23)C(C)C1 (stereo unspecified) + Cc1cccc(N(C)C(=O)C2C(O)CCN2c2nc(C)cc(C(F)(F)F)c2C#N)c1, the IC50 (second compound 0.0316 µM) was > 10 µM, the IC50 (second compound 0.1 µM) was > 10 µM and the IC50 (second compound 0.316 µM) was > 10 µM. For the same molecule, the IC50 (second compound 1 µM) was > 10 µM, the IC50 (second compound 3.16 µM) was > 10 µM and the IC50 (second compound 10 µM) was > 10 µM. It also gave a viability, T/C [1] of 108%, a viability, T/C [2] of 99.5% and a viability, T/C [3] of 103%. The viability, T/C [4] was 104%, the viability, T/C [5] was 110% and the viability, T/C [6] was 88%. The viability, T/C [7] was 105%, the viability, T/C [8] was 104% and the viability, T/C [9] was 101%. For the same molecule, the viability, T/C [10] was 107%, the viability, T/C [11] was 102% and the viability, T/C [12] was 93.4%. For the same molecule, the viability, T/C [13] was 106%, the viability, T/C [14] was 105% and the viability, T/C [15] was 103%. The viability, T/C [16] was 103%, the viability, T/C [17] was 113% and the viability, T/C [18] was 92%. For the same molecule, the viability, T/C [19] was 109%, the viability, T/C [20] was 94.9% and the viability, T/C [21] was 107%. The viability, T/C [22] was 104%, the viability, T/C [23] was 108% and the viability, T/C [24] was 85.5%. It also gave a viability, T/C [25] of 101%, a viability, T/C [26] of 100% and a viability, T/C [27] of 105%. The viability, T/C [28] was 108%, the viability, T/C [29] was 108% and the viability, T/C [30] was 81.8%. For the same molecule, the viability, T/C [31] was 105%, the viability, T/C [32] was 100% and the viability, T/C [33] was 98.6%. The viability, T/C [34] was 103%, the viability, T/C [35] was 81.1% and the viability, T/C [36] was 80.1%.
CC(C)n1c(=O)n(C)c2cnc3cc(F)c(-c4ccc(OCCCN5CCCCC5)nc4)cc3c21 + Cc1cccc(N(C)C(=O)C2C(O)CCN2c2nc(C)cc(C(F)(F)F)c2C#N)c1 was tested, and the IC50 (second compound 0.0316 µM) was > 10 µM, the IC50 (second compound 0.1 µM) was > 10 µM and the IC50 (second compound 0.316 µM) was > 10 µM. The IC50 (second compound 1 µM) was > 10 µM, the IC50 (second compound 3.16 µM) was > 10 µM and the IC50 (second compound 10 µM) was > 10 µM. It also gave a viability, T/C [1] of 104%, a viability, T/C [2] of 98.6% and a viability, T/C [3] of 104%. For the same molecule, the viability, T/C [4] was 98.2%, the viability, T/C [5] was 99% and the viability, T/C [6] was 92.4%. The viability, T/C [7] was 104%, the viability, T/C [8] was 101% and the viability, T/C [9] was 99.4%. It also gave a viability, T/C [10] of 100%, a viability, T/C [11] of 98.7% and a viability, T/C [12] of 88.6%. It also gave a viability, T/C [13] of 101%, a viability, T/C [14] of 91.6% and a viability, T/C [15] of 102%. It also gave a viability, T/C [16] of 109%, a viability, T/C [17] of 106% and a viability, T/C [18] of 99.8%. For the same molecule, the viability, T/C [19] was 110%, the viability, T/C [20] was 93.5% and the viability, T/C [21] was 99%. The viability, T/C [22] was 108%, the viability, T/C [23] was 104% and the viability, T/C [24] was 88.1%. The viability, T/C [25] was 98.7%, the viability, T/C [26] was 102% and the viability, T/C [27] was 109%. The viability, T/C [28] was 106%, the viability, T/C [29] was 99.3% and the viability, T/C [30] was 92.4%. It also gave a viability, T/C [31] of 101%, a viability, T/C [32] of 98.8% and a viability, T/C [33] of 97.5%. It also gave a viability, T/C [34] of 95.8%, a viability, T/C [35] of 97.4% and a viability, T/C [36] of 92.5%.
